Earlier results as cited in patent US20080286341A1, “Buffered coated nicotine containing products” (priority 2007, published 2008).

Key:
[1] = smoking a cigarette
[2] = from Handbook of Chemistry and Physics, 85th edition

SMILES | time to reach the brain after inhalation [1] | pKa value (in interval 8.0-9.6) [2]
CN1CCCC1c1cccnc1 (centres unmarked) [nicotine, 3-(1-methyl-2-pyrrolidinyl)-pyridine] | ten | –
NC(=O)C[C@H](N)C(=O)O [Aspargine] | – | 8.73
